# Assay: log P determination by HPLC (EEC Directive 79/831 Annex V.A8, gradient method)
# Assay type: physicochemical
row,SMILES,Physical data: logP
1,CC(C)(C)c1nn2c(/C=C/C(=O)NC3CCCC3)c(-c3ccccc3Cl)nc2s1 [Example 0809],4.12
2,CC(C)(C)c1nn2c(/C=C/C(=O)NC3CCCCC3)c(-c3ccccc3Cl)nc2s1 [Example 0810],3.79
3,CC(C)(C)c1nn2c(/C=C/C(=O)Nc3ccc(Cl)cc3)c(-c3ccccc3Cl)nc2s1 [Example 0811],4.72
4,CC(C)(C)c1nn2c(/C=C/C(=O)Nc3ccc(OC(F)(F)F)cc3)c(-c3ccccc3Cl)nc2s1 [Example 0812],5.13
5,CC(C)(C)c1nn2c(/C=C/C(=O)NCC(F)(F)C(F)(F)F)c(-c3ccccc3Cl)nc2s1 [Example 0814],4.08
6,CC(C)(C)c1nn2c(/C=C/C(=O)NCC(F)(F)C(F)(F)C(F)(F)F)c(-c3ccccc3Cl)nc2s1 [Example 0815],4.48
7,COCc1nn2c(/C=C/C(=O)NCC(C)C)c(-c3ccccc3Cl)nc2s1 [Example 0816],2.71
8,COCc1nn2c(/C=C/C(=O)NC(C)C(F)(F)F)c(-c3ccccc3Cl)nc2s1 (stereo not drawn) [Example 0817],2.93
9,COCc1nn2c(C=CC(=O)NC(C(C)C)C(F)(F)F)c(-c3ccccc3Cl)nc2s1 (stereo not drawn) [Example 0818],3.54
10,COCc1nn2c(/C=C/C(=O)NCC(C)(C)C)c(-c3ccccc3Cl)nc2s1 [Example 0819],3.05
11,COCc1nn2c(/C=C/C(=O)NCCC(C)C)c(-c3ccccc3Cl)nc2s1 [Example 0820],3.12
12,COCc1nn2c(/C=C/C(=O)NC3CCC(C(F)(F)F)CC3)c(-c3ccccc3Cl)nc2s1 (stereo not drawn) [Example 0821],3.4
13,COCc1nn2c(/C=C/C(=O)NCC(F)(F)F)c(-c3ccccc3Cl)nc2s1 [Example 0822],2.72
14,COCc1nn2c(/C=C/C(=O)NC(C)C)c(-c3ccccc3Cl)nc2s1 [Example 0824],2.4
15,CCC(C)NC(=O)/C=C/c1c(-c2ccccc2Cl)nc2sc(COC)nn12 (stereo not drawn) [Example 0825],2.71
16,COCc1nn2c(/C=C/C(=O)NC3CC3)c(-c3ccccc3Cl)nc2s1 [Example 0829],2.2
17,COCc1nn2c(/C=C/C(=O)NC3CCC3)c(-c3ccccc3Cl)nc2s1 [Example 0830],2.59
18,COCc1nn2c(/C=C/C(=O)NC3CCCC3)c(-c3ccccc3Cl)nc2s1 [Example 0831],2.8
19,COCc1nn2c(/C=C/C(=O)NC3CCCCC3)c(-c3ccccc3Cl)nc2s1 [Example 0832],3.12
20,COCc1nn2c(/C=C/C(=O)Nc3ccc(Cl)cc3)c(-c3ccccc3Cl)nc2s1 [Example 0833],3.87
21,COCc1nn2c(/C=C/C(=O)Nc3ccc(OC(F)(F)F)cc3)c(-c3ccccc3Cl)nc2s1 [Example 0834],4
22,COCc1nn2c(/C=C/C(=O)Nc3ccc(C(F)(F)F)cc3)c(-c3ccccc3Cl)nc2s1 [Example 0835],3.99
23,COCc1nn2c(/C=C/C(=O)NCC(F)(F)C(F)(F)F)c(-c3ccccc3Cl)nc2s1 [Example 0836],3.17
24,COCc1nn2c(/C=C/C(=O)NCC(F)(F)C(F)(F)C(F)(F)F)c(-c3ccccc3Cl)nc2s1 [Example 0837],3.59
25,CC(C)CNC(=O)/C=C/c1c(-c2ccccc2Cl)nc2sc(-c3ccc(C(F)(F)F)cc3)nn12 [Example 0838],4.37
26,CC(NC(=O)/C=C/c1c(-c2ccccc2Cl)nc2sc(-c3ccc(C(F)(F)F)cc3)nn12)C(F)(F)F (stereo not drawn) [Example 0839],4.37

row,SMILES,Physical data: logP
1,CC(C)(C)CNC(=O)/C=C/c1c(-c2ccccc2Cl)nc2sc(-c3ccc(C(F)(F)F)cc3)nn12 [Example 0841],4.68
2,CC(C)CCNC(=O)/C=C/c1c(-c2ccccc2Cl)nc2sc(-c3ccc(C(F)(F)F)cc3)nn12 [Example 0842],4.72
3,O=C(/C=C/c1c(-c2ccccc2Cl)nc2sc(-c3ccc(C(F)(F)F)cc3)nn12)NC1CCC(C(F)(F)F)CC1 (stereo not drawn) [Example 0843],4.86
4,O=C(/C=C/c1c(-c2ccccc2Cl)nc2sc(-c3ccc(C(F)(F)F)cc3)nn12)NCC(F)(F)F [Example 0844],4.21
5,CC(C)NC(=O)/C=C/c1c(-c2ccccc2Cl)nc2sc(-c3ccc(C(F)(F)F)cc3)nn12 [Example 0846],3.96
6,CCC(C)NC(=O)/C=C/c1c(-c2ccccc2Cl)nc2sc(-c3ccc(C(F)(F)F)cc3)nn12 (stereo not drawn) [Example 0847],4.33
7,CC(NC(=O)/C=C/c1c(-c2ccccc2Cl)nc2sc(-c3ccc(C(F)(F)F)cc3)nn12)C(C)(C)C (stereo not drawn) [Example 0848],4.83
8,O=C(/C=C/c1c(-c2ccccc2Cl)nc2sc(-c3ccc(C(F)(F)F)cc3)nn12)NC1CC1 [Example 0851],3.75
9,O=C(/C=C/c1c(-c2ccccc2Cl)nc2sc(-c3ccc(C(F)(F)F)cc3)nn12)NC1CCC1 [Example 0852],4.21
10,O=C(/C=C/c1c(-c2ccccc2Cl)nc2sc(-c3ccc(C(F)(F)F)cc3)nn12)NC1CCCC1 [Example 0853],4.44
11,O=C(/C=C/c1c(-c2ccccc2Cl)nc2sc(-c3ccc(C(F)(F)F)cc3)nn12)NC1CCCCC1 [Example 0854],4.76
12,O=C(/C=C/c1c(-c2ccccc2Cl)nc2sc(-c3ccc(C(F)(F)F)cc3)nn12)NC1CCC(Cl)CC1 (stereo not drawn) [Example 0855],5.27
13,O=C(/C=C/c1c(-c2ccccc2Cl)nc2sc(-c3ccc(C(F)(F)F)cc3)nn12)Nc1ccc(OC(F)(F)F)cc1 [Example 0856],5.47
14,O=C(/C=C/c1c(-c2ccccc2Cl)nc2sc(-c3ccc(C(F)(F)F)cc3)nn12)Nc1ccc(C(F)(F)F)cc1 [Example 0857],5.61
15,O=C(/C=C/c1c(-c2ccccc2Cl)nc2sc(-c3ccc(C(F)(F)F)cc3)nn12)NCC(F)(F)C(F)(F)F [Example 0858],4.62
16,O=C(/C=C/c1c(-c2ccccc2Cl)nc2sc(-c3ccc(C(F)(F)F)cc3)nn12)NCC(F)(F)C(F)(F)C(F)(F)F [Example 0859],5
17,Cc1cn2c(/C=C/C(=O)NCC(C)C)c(-c3ccccc3Cl)nc2s1 [Example 0860],2.64
18,Cc1cn2c(/C=C/C(=O)NC(C)C(F)(F)F)c(-c3ccccc3Cl)nc2s1 (stereo not drawn) [Example 0861],2.85
19,Cc1cn2c(C=CC(=O)NC(C(C)C)C(F)(F)F)c(-c3ccccc3Cl)nc2s1 (stereo not drawn) [Example 0862],3.45
20,Cc1cn2c(/C=C/C(=O)NCC(C)(C)C)c(-c3ccccc3Cl)nc2s1 [Example 0863],2.89
21,Cc1cn2c(/C=C/C(=O)NCCC(C)C)c(-c3ccccc3Cl)nc2s1 [Example 0864],3
22,Cc1cn2c(/C=C/C(=O)NCC(F)(F)F)c(-c3ccccc3Cl)nc2s1 [Example 0866],2.64
23,Cc1cn2c(/C=C/C(=O)NC(C)C)c(-c3ccccc3Cl)nc2s1 [Example 0868],2.35
24,CCC(C)NC(=O)/C=C/c1c(-c2ccccc2Cl)nc2sc(C)cn12 (stereo not drawn) [Example 0869],2.54
25,Cc1cn2c(/C=C/C(=O)NC(C)C(C)(C)C)c(-c3ccccc3Cl)nc2s1 (stereo not drawn) [Example 0870],3.17

# Reference: patent US20090118286A1, “Heterobicyclic Acrylamides” (Bayer Cropscience AG, priority 2005, published 2009)
